Here are results for 10 molecules from patent US10660877B2 (BRISTOL-MYERS SQUIBB COMPANY, priority 2016, dated 2020).

One assay concerns the target human TLR7 (Homo sapiens (Human), UniProt Q9NYK1). Description: TLR7 inhibition reporter assay (HEK-Blue cells, SEAP reporter, gardiquimod stimulation). It counts as cell-based. The settings on record: HEK-Blue cells overexpressing human TLR7, gardiquimod 7.5 μM. Background: A reporter such as luciferase makes a cellular process visible.
Another assay addresses human TLR8 (Homo sapiens (Human), UniProt Q9NR97). Description: TLR8 inhibition reporter assay (HEK-Blue cells, SEAP reporter, R848 stimulation).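 Also: compounds tested from 0.05 nM to 50 µM, 22 h at 37 °C, SEAP measured with HEK-Blue Detection, inhibition relative to agonist plus DMSO versus a known inhibitor.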
Another assay concerns the target human TLR9 (Homo sapiens (Human), UniProt Q9NR96). Description: TLR9 inhibition reporter assay (HEK-Blue cells, SEAP reporter, ODN2006 stimulation).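 Also: compounds tested over 0.05 nM to 50 µM, 22 h incubation, inhibition taken as SEAP signal drop from agonist plus DMSO wells toward a known inhibitor control.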
The mark [1] stands for this setting: read-out: TLR8 IC50, HEK-Blue cells overexpressing human TLR8, R848 15.9 μM.
Setting [2] is: read-out: TLR9 IC50, HEK-Blue cells overexpressing human TLR9, ODN2006 5 nM.

Like-named read-outs stand apart in the source and are kept apart here.

Chain of human TLR8 (Q9NR97 27-1041): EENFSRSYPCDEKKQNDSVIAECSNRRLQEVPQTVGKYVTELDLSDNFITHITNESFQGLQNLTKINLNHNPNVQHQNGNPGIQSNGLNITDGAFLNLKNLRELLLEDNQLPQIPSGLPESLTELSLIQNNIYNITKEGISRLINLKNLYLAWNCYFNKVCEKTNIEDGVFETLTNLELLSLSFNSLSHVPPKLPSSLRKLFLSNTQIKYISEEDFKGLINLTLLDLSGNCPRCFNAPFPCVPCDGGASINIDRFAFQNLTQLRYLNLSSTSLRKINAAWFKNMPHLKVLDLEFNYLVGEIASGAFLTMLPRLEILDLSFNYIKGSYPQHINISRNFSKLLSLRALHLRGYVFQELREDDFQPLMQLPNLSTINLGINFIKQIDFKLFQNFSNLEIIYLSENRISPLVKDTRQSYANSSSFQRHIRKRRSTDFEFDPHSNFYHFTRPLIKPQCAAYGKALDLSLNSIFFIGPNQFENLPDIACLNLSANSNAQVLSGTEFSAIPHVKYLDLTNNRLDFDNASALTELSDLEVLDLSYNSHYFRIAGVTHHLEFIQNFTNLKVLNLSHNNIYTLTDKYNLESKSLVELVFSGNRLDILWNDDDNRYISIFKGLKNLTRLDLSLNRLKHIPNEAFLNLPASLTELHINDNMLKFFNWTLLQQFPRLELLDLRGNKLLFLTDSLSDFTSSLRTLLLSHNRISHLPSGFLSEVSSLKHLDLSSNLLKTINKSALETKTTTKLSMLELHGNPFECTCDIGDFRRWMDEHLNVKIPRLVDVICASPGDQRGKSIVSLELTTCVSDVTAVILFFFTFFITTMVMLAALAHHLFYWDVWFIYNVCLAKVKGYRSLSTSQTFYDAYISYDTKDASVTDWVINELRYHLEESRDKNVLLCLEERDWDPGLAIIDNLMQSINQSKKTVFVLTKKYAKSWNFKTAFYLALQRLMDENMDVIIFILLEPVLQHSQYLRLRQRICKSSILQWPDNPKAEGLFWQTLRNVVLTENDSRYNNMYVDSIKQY
Chain of human TLR9 (Q9NR96 26-1032): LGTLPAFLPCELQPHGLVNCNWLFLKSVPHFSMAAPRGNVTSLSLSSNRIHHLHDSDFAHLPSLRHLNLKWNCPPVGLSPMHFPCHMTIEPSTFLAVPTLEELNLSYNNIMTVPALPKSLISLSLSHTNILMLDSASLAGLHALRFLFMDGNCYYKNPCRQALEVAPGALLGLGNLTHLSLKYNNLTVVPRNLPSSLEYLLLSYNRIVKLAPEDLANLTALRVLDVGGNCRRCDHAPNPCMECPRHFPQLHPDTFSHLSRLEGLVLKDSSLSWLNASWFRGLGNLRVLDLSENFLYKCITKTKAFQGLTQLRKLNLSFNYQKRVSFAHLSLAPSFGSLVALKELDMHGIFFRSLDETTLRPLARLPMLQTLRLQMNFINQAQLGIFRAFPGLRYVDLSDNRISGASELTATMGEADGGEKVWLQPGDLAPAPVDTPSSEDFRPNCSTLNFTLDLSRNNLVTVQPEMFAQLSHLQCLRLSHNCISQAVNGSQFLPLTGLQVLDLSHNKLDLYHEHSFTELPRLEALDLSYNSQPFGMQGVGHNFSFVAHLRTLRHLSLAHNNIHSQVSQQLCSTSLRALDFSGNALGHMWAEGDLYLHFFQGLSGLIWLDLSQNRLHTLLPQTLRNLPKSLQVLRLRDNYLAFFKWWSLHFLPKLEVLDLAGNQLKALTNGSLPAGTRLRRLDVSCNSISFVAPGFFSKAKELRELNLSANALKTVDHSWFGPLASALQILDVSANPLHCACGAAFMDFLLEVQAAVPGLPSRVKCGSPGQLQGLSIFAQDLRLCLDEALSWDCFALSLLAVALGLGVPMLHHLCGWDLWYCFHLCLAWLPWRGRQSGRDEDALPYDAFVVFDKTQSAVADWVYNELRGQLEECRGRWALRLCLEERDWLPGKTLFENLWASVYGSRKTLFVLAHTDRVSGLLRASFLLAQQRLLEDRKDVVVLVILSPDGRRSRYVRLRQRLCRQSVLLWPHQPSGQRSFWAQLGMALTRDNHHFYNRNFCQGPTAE
Chain of human TLR7 (Q9NYK1 27-1049): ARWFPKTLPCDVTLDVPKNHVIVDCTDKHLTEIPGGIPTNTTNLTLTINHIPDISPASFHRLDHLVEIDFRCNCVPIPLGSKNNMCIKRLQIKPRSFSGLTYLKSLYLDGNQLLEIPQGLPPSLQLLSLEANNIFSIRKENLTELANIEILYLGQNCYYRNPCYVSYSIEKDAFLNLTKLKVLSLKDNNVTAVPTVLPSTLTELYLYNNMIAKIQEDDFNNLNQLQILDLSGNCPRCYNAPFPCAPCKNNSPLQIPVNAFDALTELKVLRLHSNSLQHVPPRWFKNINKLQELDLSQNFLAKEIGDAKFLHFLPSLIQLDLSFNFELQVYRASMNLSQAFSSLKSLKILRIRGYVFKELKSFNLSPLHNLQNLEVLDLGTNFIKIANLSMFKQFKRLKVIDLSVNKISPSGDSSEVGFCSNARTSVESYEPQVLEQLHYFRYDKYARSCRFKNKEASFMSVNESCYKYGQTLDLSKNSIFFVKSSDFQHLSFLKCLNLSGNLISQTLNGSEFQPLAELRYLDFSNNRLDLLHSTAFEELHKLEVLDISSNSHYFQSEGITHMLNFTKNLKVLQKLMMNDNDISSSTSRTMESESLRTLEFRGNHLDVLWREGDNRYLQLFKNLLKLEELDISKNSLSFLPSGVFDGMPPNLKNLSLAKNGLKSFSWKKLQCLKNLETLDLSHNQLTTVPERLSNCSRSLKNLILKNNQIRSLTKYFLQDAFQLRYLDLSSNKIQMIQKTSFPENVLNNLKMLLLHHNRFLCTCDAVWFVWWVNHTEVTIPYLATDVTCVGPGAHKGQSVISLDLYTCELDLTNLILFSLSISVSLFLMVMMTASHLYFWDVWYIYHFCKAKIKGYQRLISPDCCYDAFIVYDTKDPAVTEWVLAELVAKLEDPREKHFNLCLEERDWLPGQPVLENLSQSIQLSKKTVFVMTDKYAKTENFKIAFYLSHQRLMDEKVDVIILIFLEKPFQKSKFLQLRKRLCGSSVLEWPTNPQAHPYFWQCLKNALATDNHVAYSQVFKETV
Procedure for human TLR9: TLR7/8/9 Inhibition Reporter Assays
Briefly, cells are seeded into Greiner 384 well plates (15000 cells per well for TLR7, 20,000 for TLR8 and 25,000 for TLR9) and then treated with test compounds in DMSO to yield a final dose response concentration range of 0.05 nM-50 μM. […] After a 22 hour incubation at 37° C., 5% CO2, SEAP levels are determined with the addition of HEK-Blue™ Detection reagent (Invivogen), a cell culture medium that allows for detection of SEAP, according to manufacturer's specifications. The percent inhibition is determined as the % reduction in the HEK-Blue signal present in wells treated with agonist plus DMSO alone compared to wells treated with a known inhibitor.

Take `Cc1cc(-c2[nH]c3ccc(C4CCN(C(=O)CCn5nc(C)cc5C)CC4)cc3c2C(C)C)cc(C)n1` [Example 125, 3-(3,5-dimethyl-1H-pyrazol-1-yl)-1-(4-(2-(2,6-dimethylpyridin-4-yl)-3-isopropyl-1H-indol-5-yl)piperidin-1-yl)propan-1-one]: the results for the IC50 against human TLR7, at human TLR8 (setting [1]) and at human TLR9 (setting [2]) were 47.4 nM, 224 nM and 45600 nM, respectively.
Regarding `Cc1cc(-c2[nH]c3ccc(C4CCN(CC(=O)N5CCOCC5)CC4)cc3c2C(C)C)cc(C)n1` [Example 232, 2-(4-(2-(2,6-dimethylpyridin-4-yl)-3-isopropyl-1H-indol-5-yl)piperidin-1-yl)-1-morpholinoethan-1-one], the half-inhibitory concentration (IC50) – broadly, the concentration needed to halve the response being measured – came out at 3.6 nM against human TLR7; 7.7 nM at human TLR8 (TLR8 IC50, HEK-Blue cells overexpressing human TLR8, R848 15.9 μM); 627 nM against human TLR9 (TLR9 IC50, HEK-Blue cells overexpressing human TLR9, ODN2006 5 nM).
Turning to `COC(=O)C1CC(N2CCC(c3ccc4[nH]c(-c5ccnc(C)c5)c(C(C)C)c4c3)CC2)CCN1` (stereo not drawn) [Example 704, methyl 4-(3-isopropyl-2-(2-methylpyridin-4-yl)-1H-indol-5-yl)-[1,4′-bipiperidine]-2′-carboxylate], the results for the IC50 at human TLR7, at human TLR8 (setting [1]) and on human TLR9 (setting [2]) were 20.9 nM, 4.1 nM and 551 nM, respectively.
Consider `Cc1cc(-c2[nH]c3ccc(C4CCN(C(=O)C5CCNCC5)CC4)cc3c2C(C)C)cc(C)n1` [Example 178, (4-(2-(2,6-dimethylpyridin-4-yl)-3-isopropyl-1H-indol-5-yl)piperidin-1-yl)(piperidin-4-yl)methanone], for which the half-maximal inhibitory concentration (IC50) was found to be 5.4 nM on human TLR7, 27.3 nM at human TLR8 (setting [1]) and 549 nM on human TLR9 (setting [2]).
In the same order, the values of `Cc1cc(-c2[nH]c3ccc(C4CCN(C5CC(C)OC(C)C5)CC4)cc3c2C(C)C)cc(C)n1` (stereo not drawn) [Example 455, 2-(2,6-dimethylpyridin-4-yl)-5-(1-(2,6-dimethyltetrahydro-2H-pyran-4-yl)piperidin-4-yl)-3-isopropyl-1H-indole] are 10.9 nM, 7.6 nM and 390 nM.
On to `Cc1cc(-c2[nH]c3ccc(C4CCN(C(=O)C5CC(=O)N(C)C5)CC4)cc3c2C(C)C)c(F)cn1` (stereo not drawn) [Example 583, 4-(4-(2-(5-fluoro-2-methylpyridin-4-yl)-3-isopropyl-1H-indol-5-yl)piperidine-1-carbonyl)-1-methylpyrrolidin-2-one], for which the IC50 is 15.6 nM against human TLR7, 36.8 nM at human TLR8 (setting [1]) and > 50000 nM on human TLR9 (setting [2]).
Regarding `Cc1cc(-c2[nH]c3ccc(C4CCN(C5CCOCC5)CC4)cc3c2C(C)C)c(C)cn1` [Example 714, 2-(2,5-dimethylpyridin-4-yl)-3-isopropyl-5-(1-(tetrahydro-2H-pyran-4-yl)piperidin-4-yl)-1H-indole], the IC50 at human TLR7 came to 31.4 nM; on human TLR8 (setting [1]) it was 2.7 nM; at human TLR9 (setting [2]), 2210 nM.
Regarding `Cc1cc(-c2[nH]c3ccc(C4CCN(S(=O)(=O)c5ccccc5)CC4)cc3c2C(C)C)ccn1` [Example 547, 3-isopropyl-2-(2-methylpyridin-4-yl)-5-(1-(phenylsulfonyl)piperidin-4-yl)-1H-indole], the IC50 against human TLR7 was 333 nM; at human TLR8 (setting [1]) it was 1040 nM; at human TLR9 (setting [2]), > 50000 nM.
In the same order, the values of `CCc1c(-c2ccnc(C)c2)[nH]c2ccc(C3CCN(C(=O)C4CNC4)CC3)cc12` [Example 630, azetidin-3-yl (4-(3-ethyl-2-(2-methylpyridin-4-yl)-1H-indol-5-yl)piperidin-1-yl)methanone] are 70.4 nM, 40.2 nM and 333 nM.
For the molecule `CCc1c(-c2ccnc(C)c2)[nH]c2ccc(C3CCN(C[C@@H]4CCCN4C(C)C)CC3)cc12` [Example 741, (S)-3-ethyl-5-(1-((1-isopropylpyrrolidin-2-yl)methyl)piperidin-4-yl)-2-(2-methylpyridin-4-yl)-1H-indole], the values for the half-inhibitory concentration (IC50) against human TLR7, at human TLR8 (setting [1]) and at human TLR9 (setting [2]) were 172 nM, 32.7 nM and 213 nM, respectively.
